Assay results taken from US12037324B2, “Biarylmethyl heterocycles” (Université de Montréal, priority 2016, dated 2024).

Experiments:
Type in all cases: cell-based
AGTR1 [1] = target: T1, AGTR1 (Homo sapiens, UniProt P30556); experiment: DiscoveRx β-arrestin2 recruitment assay (enzyme complementation, Pathunter CHO-K1 AGTR1 β-arrestin cell line); settings: DiscoveRx β-arrestin2 recruitment; for DiscoveRx β-arrestin2 Ymax (%): maximal response
T1 construct: host or cells: Pathunter CHO-K1 AGTR1 β-arrestin cell line (CHO-K1)
T1 sequence (P30556 1-359): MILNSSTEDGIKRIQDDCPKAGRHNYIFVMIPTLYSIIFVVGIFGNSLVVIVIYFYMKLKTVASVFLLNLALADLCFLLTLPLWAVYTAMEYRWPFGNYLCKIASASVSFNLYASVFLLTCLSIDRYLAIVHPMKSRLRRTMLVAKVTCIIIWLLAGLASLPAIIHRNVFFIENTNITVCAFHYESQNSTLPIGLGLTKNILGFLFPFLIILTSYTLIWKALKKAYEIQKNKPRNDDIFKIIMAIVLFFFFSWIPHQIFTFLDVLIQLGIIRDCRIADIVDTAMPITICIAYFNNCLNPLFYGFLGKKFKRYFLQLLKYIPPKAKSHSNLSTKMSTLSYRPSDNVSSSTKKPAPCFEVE
Description: In one aspect of the invention, signaling bias of compounds was assessed by comparing the relative activity of compounds to activate both the β-arrestin and Gq signaling pathways. In order to confirm signaling bias, compounds were studied in two different assay formats. DiscoveRx β-arrestin2 Recruitment and IP1 Assays β-arrestin2 recruitment to activated receptors can be assessed using an enzyme complementation method (Zhao, Jones et al. 2008). […] Cells (5000/well) were plated into 1536 well plates (Cellocoat plates, Greiner Bio One, Monroe, NC) 14-16 hours before each experiment in 20 μl DMEM/F12 medium (Thermo-Fisher Scientific, Carlsbad, CA) containing heat-inactivated 1% fetal bovine serum. Subsequently, the compounds of interest were added at varying concentrations to the wells in a volume of 200 nl and the cells incubated for 90 min at 37° C. The detection reagent (10 μl) was added to each well and the plates incubated at room temperature for 1 hour before measurement of chemiluminescence using an EnVision Multilabel Reader (Perkin-Elmer, Waltham, MA). The data are processed using Toolset for Runmaster QCMulti. Concentration-response curves are fitted and EC50s (agonist mode) and IC50s (antagonist mode) estimated using a 4-parameter logistic equation. Compound activities are reported as a relative percentage to the maximal effect of All in the assays.

AGTR1 [2] = target: T1, AGTR1; experiment: DiscoveRx IP1 accumulation assay (HTRF), agonist mode, Pathunter CHO-K1 AGTR1 β-arrestin cell line; settings: for EC50: read-out: IP-1 EC50
Description: In one aspect of the invention, signaling bias of compounds was assessed by comparing the relative activity of compounds to activate both the β-arrestin and Gq signaling pathways. In order to confirm signaling bias, compounds were studied in two different assay formats.
DiscoveRx β-arrestin2 Recruitment and IP1 Assays
Gq activation can be assessed by measuring the accumulation of inositol phosphates (e.g. IP3, IP1) that are liberated following activation of phospholipase C by Gq (Thomsen, Frazer et al. 2005). In the current invention we have utilized the DiscoveRx Pathunter CHO-K1 AGTR1 β-arrestin cell line to also measure IP1 accumulation in response to compounds. IP1 accumulation was measured in both agonist and antagonist modes. In agonist mode, cells are plated as above 14-16 hours before the experiment. The medium is then removed and compounds at varying concentrations added in a final volume of 20 μl. The cells are incubated at 37° C. for 90 min. IP1 accumulation detected using a commercial HTRF assay according to manufacturer's instructions (Cisbio, Bedford, MA). Specifically, 4 μl of D2-conjugate solution (diluted 1:20 in Cisbio HTRF assay buffer) is added to each well, followed by the addition of 4 μl of anti-IP1 cryptate diluted 1:20 in HTRF assay buffer and the plates incubated for 20 min at room temperature. 14 μl from each well is measured using an Envision multi-label reader and data processed using Toolset for Runmaster QCMulti. Concentration-response curves are fitted and EC50s (agonist mode) and IC50s (antagonist mode) estimated using a 4-parameter logistic equation. Compound activities are reported as a relative percentage to the maximal effect of All in the assays.

hAT1R = target: T2, hAT1R (Homo sapiens, UniProt P30556); experiment: BRET β-arrestin2 biosensor assay, higher receptor expression (hAT1R 5 ng/well), HEK293 cells; settings: for EC50: High AT1R Expression
T2 sequence (P30556 1-359): T1 sequence (P30556 1-359)

| Structure (SMILES) | EC50 (AGTR1 [1]) | DiscoveRx β-arrestin2 Ymax (%) (AGTR1 [1]) | IP-1 Ymax (%) (AGTR1 [2]) | EC50 (AGTR1 [2]) | BRET β-Arrestin2 High AT1R Expression Ymax (%) (hAT1R) | EC50 (hAT1R) |
| --- | --- | --- | --- | --- | --- | --- |
| CCc1nc2c(C)cc(C)nc2n1Cc1ccc(-c2cc(C3CCCO3)ccc2-c2nn[nH]n2)cc1 (single isomer, unassigned) [Example 73, 2-ethyl-5,7-dimethyl-3-((5′-(tetrahydrofuran-2-yl)-2′-(2H-tetrazol-5-yl)-[1,1′-biphenyl]-4-yl)methyl)-3H-imidazo[4,5-b]pyridine] | 108 nM | 26.4% | 11.6% | 5940 nM | – | – |
| CCc1nc2c(C)cc(C)nc2n1Cc1ccc(-c2cc(C3CCCO3)ccc2-c2nn[nH]n2)cc1 (single isomer, unassigned) [Example 74, 2-ethyl-5,7-dimethyl-3-((5′-(tetrahydrofuran-2-yl)-2′-(2H-tetrazol-5-yl)-[1,1′-biphenyl]-4-yl)methyl)-3H-imidazo[4,5-b]pyridine] | 391 nM | 3.9% | – | > 100000 nM | 3.2% | > 100000 nM |
| CCc1nc2c(C)cc(C)nc2n1Cc1ccc(-c2cc(C3CCCCN3)ccc2-c2nn[nH]n2)cc1 (single isomer, unassigned) [Example 75, 2-ethyl-5,7-dimethyl-3-((5′-(piperidin-2-yl)-2′-(2H-tetrazol-5-yl)-[1,1′-biphenyl]-4-yl)methyl)-3H-imidazo[4,5-b]pyridine] | 543 nM | 7.1% | – | > 100000 nM | 53.9% | 1120 nM |
| CCc1nc2c(C)cc(C)nc2n1Cc1ccc(-c2cc(C3CCCCN3)ccc2-c2nn[nH]n2)cc1 (single isomer, unassigned) [Example 76, 2-ethyl-5,7-dimethyl-3-((5′-(piperidin-2-yl)-2′-(2H-tetrazol-5-yl)-[1,1′-biphenyl]-4-yl)methyl)-3H-imidazo[4,5-b]pyridine] | 840 nM | 13.2% | – | > 100000 nM | – | – |
| CCCC1=NC2(CCOC2)C(=O)N1Cc1ccc(-c2cc(-c3ccccc3)ccc2-c2nn[nH]n2)cc1 (single isomer, unassigned) [Example 158, 3-((6′-(2H-tetrazol-5-yl)-[1,1′:3′,1″-terphenyl]-4-yl)methyl)-2-propyl-7-oxa-1,3-diazaspiro[4.4]non-1-en-4-one] | 191 nM | 41.6% | 8.6% | 214 nM | – | – |
| CCc1nc2c(C)cc(C)nc2n1Cc1ccc(-c2cc(-c3ccc(N(C)C)cc3)ccc2-c2nn[nH]n2)cc1 [Example 15] | 22.6 nM | 14.9% | 2.4% | 21.7 nM | – | – |
| CCc1nc2c(C)cc(C)nc2n1Cc1ccc(-c2cc(-c3ccc4c(ccn4C)c3)ccc2-c2nn[nH]n2)cc1 [Example 17] | 15.7 nM | 11.9% | 3.3% | 8.7 nM | – | – |
| CCc1nc2c(C)cc(C)nc2n1Cc1ccc(-c2cc(-c3ccc(C)cc3)ccc2-c2nn[nH]n2)cc1 [Example 18] | 140 nM | 54.2% | 15.4% | 499 nM | – | – |
| CCc1nc2c(C)cc(C)nc2n1Cc1ccc(-c2cc(Nc3ccc(F)cc3)ccc2-c2nn[nH]n2)cc1 [Example 26, 4′-((2-ethyl-5,7-dimethyl-3H-imidazo[4,5-b]pyridin-3-yl)methyl)-N-(4-fluorophenyl)-6-(2H-tetrazol-5-yl)-[1,1′-biphenyl]-3-amine] | 10.8 nM | 25.0% | 7.5% | 24.2 nM | – | – |
| CCc1nc2c(C)cc(C)nc2n1Cc1ccc(-c2cc(N3CCCC3=O)ccc2-c2nn[nH]n2)cc1 [Example 28, 1-(4′-((2-ethyl-5,7-dimethyl-3H-imidazo[4,5-b]pyridin-3-yl)methyl)-6-(2H-tetrazol-5-yl)-[1,1′-biphenyl]-3-yl)pyrrolidin-2-one] | 322 nM | 11.9% | 2.3% | 3780 nM | – | – |
| CCc1nc2c(C)cc(C)nc2n1Cc1ccc(-c2cc(-c3ccsc3)ccc2-c2nn[nH]n2)cc1 [Example 55] | 9.3 nM | 44.9% | 6.8% | 26.8 nM | – | – |
| CCc1nc2c(C)cc(C)nc2n1Cc1ccc(-c2cc(N3CCC[C@@H](C)C3)ccc2-c2nn[nH]n2)cc1 [Example 86] | 159 nM | 38.0% | – | > 100000 nM | – | – |
| CCc1nc2c(C)cc(C)nc2n1Cc1ccc(-c2cc(N3CCC[C@H](C)C3)ccc2-c2nn[nH]n2)cc1 [Example 88] | 8.1 nM | 22.1% | – | > 100000 nM | – | – |
| CCc1nc2c(C)cc(C)nc2n1Cc1ccc(-c2cc(N3CC[C@H](C)C3)ccc2-c2nn[nH]n2)cc1 [Example 89] | 49.4 nM | 22.5% | – | > 100000 nM | – | – |
| CCc1nc2c(C)cc(C)nc2n1Cc1ccc(-c2cc(N3CCCCCC3)ccc2-c2nn[nH]n2)cc1 [Example 95, 3-((5′-(azepan-1-yl)-2′-(2H-tetrazol-5-yl)-[1,1′-biphenyl]-4-yl)methyl)-2-ethyl-5,7-dimethyl-3H-imidazo[4,5-b]pyridine] | 137 nM | 21.0% | 6.3% | 249 nM | – | – |
| CCCCC1=NC2(CCCC2)C(=O)N1Cc1ccc(-c2cc(N3CCC(C)(C)CC3)ccc2-c2nn[nH]n2)cc1 [Example 101] | 30 nM | 21.4% | – | > 100000 nM | – | – |
| CCCCC1=NC2(CCCC2)C(=O)N1Cc1ccc(-c2cc(N3CCC(C)C3)ccc2-c2nn[nH]n2)cc1 (stereo not drawn) [Example 103] | 112 nM | 8.8% | – | > 100000 nM | – | – |
| CCCCC1=NC2(CCCC2)C(=O)N1Cc1ccc(-c2cc(N3CC4(CC4)c4ccccc43)ccc2-c2nn[nH]n2)cc1 [Example 108] | 42.3 nM | 38.8% | 12.8% | 219 nM | – | – |
| CCCCC1=NC2(CCCC2)C(=O)N1Cc1ccc(-c2cc(-c3cncc(OC)c3)ccc2-c2nn[nH]n2)cc1 [Example 132] | 87.2 nM | 14.1% | – | – | 22.0% | 496 nM |
| CCCCC1=NC2(CCCC2)C(=O)N1Cc1ccc(-c2cc(-c3ccccn3)ccc2-c2nn[nH]n2)cc1 [Example 140] | 9.7 nM | 22.1% | 4.5% | 26.1 nM | – | – |
| CCc1nc2c(C)cc(C)nc2n1Cc1ccc(-c2cc(-c3ccccc3)ccc2C(=O)O)nc1 [Example 201, 3-(5-((2-ethyl-5,7-dimethyl-3H-imidazo[4,5-b]pyridin-3-yl)methyl)pyridin-2-yl)biphenyl-4-carboxylic acid] | 348 nM | 7.0% | 5.6% | 454 nM | – | – |
| CCCCc1nc(Cl)c(C(=O)O)n1Cc1ccc(-c2cc(N3CCc4ccccc43)ccc2-c2noc(=O)[nH]2)cc1 [Example 406, 2-butyl-4-chloro-1-((5′-(indolin-1-yl)-2′-(5-oxo-4,5-dihydro-1,2,4-oxadiazol-3-yl)-[1,1′-biphenyl]-4-yl)methyl)-1H-imidazole-5-carboxylic acid] | 9 nM | 33.9% | – | – | 97.5% | 10.6 nM |
